Common to all, as to assay: Inhibition Assay
Test [1] deals with T1, Beta-hexosaminidase subunit beta (Homo sapiens, UniProt P07686).
T1 sequence (P07686 whole entry): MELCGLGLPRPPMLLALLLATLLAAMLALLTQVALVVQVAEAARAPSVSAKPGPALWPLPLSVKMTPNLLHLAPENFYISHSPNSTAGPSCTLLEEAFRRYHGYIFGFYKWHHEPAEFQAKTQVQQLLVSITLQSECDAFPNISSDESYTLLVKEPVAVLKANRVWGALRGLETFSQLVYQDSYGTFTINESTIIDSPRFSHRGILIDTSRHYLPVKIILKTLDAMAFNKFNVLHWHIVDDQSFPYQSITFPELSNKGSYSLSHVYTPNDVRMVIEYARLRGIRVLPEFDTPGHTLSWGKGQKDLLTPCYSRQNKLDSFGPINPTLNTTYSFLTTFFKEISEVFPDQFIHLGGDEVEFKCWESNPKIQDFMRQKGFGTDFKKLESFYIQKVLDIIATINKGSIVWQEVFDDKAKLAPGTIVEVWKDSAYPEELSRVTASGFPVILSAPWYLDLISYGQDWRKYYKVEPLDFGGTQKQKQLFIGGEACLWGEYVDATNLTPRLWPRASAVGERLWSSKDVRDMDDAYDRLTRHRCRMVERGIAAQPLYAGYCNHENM
The procedure:
(§1) Hexosaminidase activity assay was measured by fluorometry, VersaFluor Fluorometer from Bio-Rad.

Test [2] addresses T2, Beta-hexosaminidase subunit alpha (Homo sapiens, UniProt P06865).
T2 sequence (P06865 whole entry): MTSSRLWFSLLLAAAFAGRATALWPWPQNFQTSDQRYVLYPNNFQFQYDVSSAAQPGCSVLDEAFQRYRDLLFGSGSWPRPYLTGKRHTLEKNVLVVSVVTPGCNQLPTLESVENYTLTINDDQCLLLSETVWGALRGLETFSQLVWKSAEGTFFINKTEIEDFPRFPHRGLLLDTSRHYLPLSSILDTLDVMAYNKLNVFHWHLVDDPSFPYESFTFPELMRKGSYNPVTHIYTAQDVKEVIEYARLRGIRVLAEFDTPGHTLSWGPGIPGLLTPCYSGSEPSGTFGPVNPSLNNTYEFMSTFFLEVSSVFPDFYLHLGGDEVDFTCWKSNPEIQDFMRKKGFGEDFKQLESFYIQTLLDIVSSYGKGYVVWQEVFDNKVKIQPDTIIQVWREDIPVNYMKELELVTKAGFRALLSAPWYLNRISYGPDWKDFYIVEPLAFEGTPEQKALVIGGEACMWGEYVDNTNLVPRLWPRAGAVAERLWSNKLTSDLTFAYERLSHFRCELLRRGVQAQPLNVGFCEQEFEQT
The procedure: as §1

The target of test [3] is T3, Beta-hexosaminidase subunit beta (Homo sapiens, UniProt P07686).
T3 sequence (P07686 whole entry): T1 sequence (P07686 whole entry) with S62L
Here is the method: as §1
The source holds these as a separate data set.

Changes are numbered by the printed parent chain. pKi: −log10 of the molar value.

In the case of `CC(=O)N[C@@H]1[C@@H](O)[C@H](O)[C@@H](OS(=O)(=O)O)N1C` [Iminocyclitol, 8], the negative-log Ki (pKi) (usually −log10 of the Ki, conventionally taken in molar units) was 5.30 in test [1] and 7.00 in test [2].

`CC(=O)N[C@@H]1N[C@H](CO)[C@@H](O)[C@@H]1O` [Iminocyclitol, 1]: the negative-log Ki (pKi) in test [1] was 6.62.

In the case of `CC(=O)NC1CN(C)C(CO)C(O)C1O` (stereo not given) [Iminocyclitol, 6], the pKi in test [1] was 6.07.

`CC(=O)N[C@H]1CN[C@H](CO)[C@@H](O)[C@@H]1O`: in test [3], the negative-log Ki (pKi) was 5.92. `CC(=O)N[C@H]1[C@@H](O)[C@H](O)[C@@H](CO)N1C` [Iminocyclitol, 2]: the negative logarithm of the Ki (pKi) in test [1] is 7.19. `CC1=NC2C(OC(OS(=O)(=O)O)C(O)C2O)S1` (stereo not given) [Iminocyclitol, 10]: the negative-log Ki (pKi) in test [1] was 4.00; in test [2] it was 5.00. In the case of `CC(=O)N[C@H]1N[C@H](CO)[C@@H](O)[C@@H]1O` [Iminocyclitol, 3], the pKi in test [1] was 7.40.

Regarding `CC(=O)N[C@@H]1[C@@H](O)[C@H](O)[C@@H](CO)N1C` [Iminocyclitol, 4], the pKi in test [1] is 7.62.

The values are drawn from BindingDB's records for doi:10.1016/S1074-5521(01)00045-X (The Scripps Research Institute, 2001).
